Laboratory results published in patent US12065435B2, “Compounds for the treatment of glycogen storage disorders” (HADASIT MEDICAL RESEARCH SERVICES AND DEVELOPMENT LTD., priority 2017, dated 2024).

Legend:
[1] = tested on: APBD skin fibroblasts; experiment: Multi-parametric cell-phenotypic characterization of APBD skin fibroblasts; assay type: cell-based, human; details: APBD fibroblasts treated with compound
Description: FIG. 10 presents a graph showing multi-parametric cell-phenotypic characterization of healthy control (HC) and APBD skin fibroblasts. Upper panel: the extent of deviation from healthy control of the cell features shown, ordered by the amount of deviation (-log (P value)). […] The different comparisons analyzed are shown at the bottom of the panel.
Next, the multi-parametric analysis of compound A, one of the compounds tested in the Gbe^Y329S/Y329S mouse model for APBD was completed. The different cell features in APBD fibroblasts of several patients were ordered according to the extent of their deviation from the same features in healthy fibroblasts.

[2] = tested on: polyglucosan body (PB) in APBD patient-derived fibroblasts; experiment: High content (image-based) PAS screening assay for polyglucosan bodies; assay type: cell-based, human; details: 0, 1, 5, 10 and 50 μM
Experimental: All the steps of the assay were performed automatically using a Freedom Evo 150 liquid handling robot (Tecan). APBD patient-derived fibroblasts were seeded at a density of 800 cells/well in DMEM (Gibco) supplemented with 1 mM sodium pyruvate (Gibco), 1% antibiotics (Biological Industries, Israel) and 5% fetal bovine serum (Hyclone) into 384 well microclear plates (Greiner). The plates were transferred by the robotic arm (RoMa) into an automated incubator (Liconic), integrated with the robotic system, where they were incubated at 37° C. with 5% CO2. Following 24 h incubation, the medium was replaced by the robot using medium supplemented with 10 μM of each screened compound (0.1% DMSO final concentration, all prepared by the robot). The screened compounds were part of the Diverset CL collection purchased from ChemBridge (10,084 out of 50,000 molecules).
Next, these cells were cultured for another 24 h in the automated incubator, and, using the robot, washed them with PBS (Biological Industries, Israel), the cells were fixed with 4% paraformaldehyde (PFA), washed again with PBS, neutralized the previously added PFA by ammonium chloride (Sigma Aldrich), washed with PBS, permeabilized with 0.1% Triton X-100 (Sigma Aldrich), and washed again with PBS.
Following this, a robot was used to treat the fixed cells with 0.5 g/dl diastase (or amylase, Sigma Aldrich) for 5 minutes at 37° C. in the automated incubator, wash with PBS, stained with PAS (Merck), Hoechst 33342 (Sigma Aldrich) and Cell Mask Deep Red (Molecular Probes) and wash with PBS. Images of stained cells were then acquired by the IN Cell Analyzer 2000 (GE Healthcare) and analyzed using the IN Cell Investigator (GE Healthcare) applying an algorithm that quantified the PAS signal within each Cell Mask stained cell.
Images were segmented based on the Cell Mask signal which was linked with the segmentation of the nuclei, employing an empirically established sensitivity and kernel size for allowing the best segmentation. Once these nucleus-cytoplasm complex objects were selected, the software calculated the number of these objects (cell number) as well as the intensity of the PAS signal within each of them. All the assay parameters (including the acquisition exposure times, objective, and the analysis parameters) were kept constant throughout the whole screening campaign for allowing comparison of signals obtained from different batches of assay within the campaign.
The assay was performed as mentioned above, but with compound concentrations of 1, 5, 10, and 50 μM, instead of a constant concentration of 10 μM.
The discarded data was presumably associated with cells affected by toxic compounds. In the remaining data, the measured population mean PB intensity was normalized. Based on a series of images used for training, compounds were considered as positive only where following treatment the normalized PB mean intensity was at least under −1.2 z-score of the scale. Following this approach, 85 potential hits out of the 10,084 screened compounds were selected (0.84%).

[3] = tested on: APBD modeling mice (Gbe^Y329S/Y329S mouse model); experiment: Motor parameters in APBD modeling mice; assay type: in vivo; details: for ameliorating effect on motor parameters (summary): tested every two weeks
Experimental: This study was conducted in compounds A and B according to the schemes described in Tables 8 and 9, respectively.
As vehicle control, 0.1% DMSO was used. It is noteworthy that, in order to have a statistically significant number of animals, compound A was tested in male mice and compound B in female mice (no mixed cages were allowed).
APBD is an autosomal disease with no gender related symptoms and it was presumed that this experimental design is optimal. The mode of delivery of the compounds was intravenous (IV) injection for the first month, followed by subcutaneous injection due to lack of injection space and scaring in animal tails.
Tables 8 and 9 describe the study design for compounds A and B. both compounds were tested at the age of 4 months, two months prior to disease onset, in order to assess possible prophylactic effects, and at the age of 6 months, at disease onset, in order to assess corrective effects.
The effect of compounds A and B on various motor parameters was tested every two weeks. The results are shown in herein.
The point of reference is one time point prior to treatment initiation. Please note, since animals first treated with the compounds at 6 months of age were not injected at all before that age, they could not have been compared to animals pre-injected with vehicle. Therefore, the duration of the longitudinal studies for the cohorts first treated at the age of 6 months is shorter than that of the animals first treated at 4 months of age.

[4] = tested on: APBD mice; details: mouse, in vivo
[5] = treated from 4 months of age (2 months before onset), two way ANOVA with repeated measures
[6] = treated from 4 months of age, Bonferroni's multiple comparisons test
[7] = treated from 6 months of age (at onset), two way ANOVA with repeated measures
[8] = treated from 6 months of age, Bonferroni's multiple comparisons test

## COCCN(Cc1sccc1C)C(=O)c1cc(C)[nH]c(=O)c1 [UDP #4, N-(2-methoxyethyl)-6-methyl-N-[(3-methyl-2-thienyl)methyl]-2-oxo-1,2-dihydropyridine-4-carboxamide]
[1]
  area of respiring (TMRE labeled) mitochondria: decreased
  nuclear intensity: increased
[2]
  dose response of diastase resistant cell associated mean PAS intensity normalized by z-score: lowered mean normalized PAS intensity in a non-dose responding manner
[3]; 250 mg/kg, IV first month then subcutaneous
  apathy, mobility and responsiveness to experimenter: less apathic, more mobile and more responsive to intervention by the experimenter
[3]; 250 mg/kg, IV first month then subcutaneous, listed as Compound A
  ameliorating effect on motor parameters (summary): ameliorate extension reflex, grip strength and gait
[3]; 250 mg/kg, IV first month then subcutaneous, listed as compound A
  ameliorating effect on motor parameters (summary): improves the uniformity of step alteration
[3]; [5]
  average duration in movement in an open field test vs vehicle: not different from vehicle (p<0.1)
  average front paw grip strength vs vehicle: not different from vehicle (p<0.1)
  average gait length vs vehicle: not different from vehicle (p<0.1)
  average gait width vs vehicle: not different from vehicle (p<0.1)
  average latency to fall off a metal wire vs vehicle: not different from vehicle (p<0.1)
  average latency to fall off a rotating cylinder (rotarod) vs vehicle: not different from vehicle (p<0.1)
  average regularity of step distance (Coefficient of Variance of all R-R and L-L step distances) vs vehicle: significantly different from vehicle (p<0.01)
  average uniformity of step alternation (|0.5-(R-L/R-R)|) vs vehicle: not different from vehicle (p<0.1)
  extension reflex vs vehicle: different from vehicle with p<0.09
[3]; [6]
  average duration in movement in an open field test vs vehicle: no significant difference
  average front paw grip strength vs vehicle: a significant difference (p<0.05) between vehicle and treatment at 32 days after initiation of treatment
  average gait length vs vehicle: no significant difference
  average gait width vs vehicle: no significant difference
  average latency to fall off a metal wire vs vehicle: no significant difference
  average latency to fall off a rotating cylinder (rotarod) vs vehicle: no significant difference
  average regularity of step distance vs vehicle: a significant difference (p<0.05) between vehicle and treatment at 81 days after treatments initiation
  average uniformity of step alternation vs vehicle: a significant difference (p<0.05) between vehicle and treatment 95 days after treatment initiation
  extension reflex vs vehicle: no significant difference
[3]; [7]
  average duration in movement in an open field test vs vehicle: not different from vehicle (p<0.1)
  average front paw grip strength vs vehicle: different from vehicle with p<0.055
  average gait length vs vehicle: not different from vehicle (p<0.1)
  average gait width vs vehicle: not different from vehicle (p<0.1)
  average latency to fall off a metal wire vs vehicle: not different from vehicle (p<0.1)
  average latency to fall off a rotating cylinder (rotarod) vs vehicle: not different from vehicle (p<0.1)
  average regularity of step distance vs vehicle: not different from vehicle (p<0.1)
  average uniformity of step alternation (|0.5-(R-L/R-R)|) vs vehicle: significantly different from vehicle (p<0.06)
  extension reflex vs vehicle: not different from vehicle (p<0.1)
[3]; [8]
  average duration in movement in an open field test vs vehicle: no significant difference
  average front paw grip strength vs vehicle: no significant difference
  average gait length vs vehicle: no significant difference
  average gait width vs vehicle: no significant difference
  average latency to fall off a metal wire vs vehicle: no significant difference
  average latency to fall off a rotating cylinder (rotarod) vs vehicle: no significant difference
  average regularity of step distance vs vehicle: no significant difference
  average uniformity of step alternation vs vehicle: a significant difference (p<0.05) between vehicle and treatment 95 days after treatment initiation
  extension reflex vs vehicle: no significant difference

## CO[C@H]1C[C@@H]2CC[C@@H](C)[C@@](O)(O2)C(=O)C(=O)N2CCCC[C@H]2C(=O)O[C@H]([C@H](C)C[C@@H]2CC[C@@H](O)[C@H](OC)C2)CC(=O)[C@H](C)/C=C(\C)[C@@H](O)[C@@H](OC)C(=O)[C@H](C)C[C@H](C)/C=C/C=C/C=C/1C [rapamycin]
[4]
  toxic effects in APBD mice: toxic effects
